Measurements reported in US20090081192A1, “METHODS OF SCREENING FOR COMPOUNDS HAVING ANTI-INFLAMMATORY ACTIVITY” (FIBREX MEDICAL RESEARCH & DEVELOPMENT GMBH, priority 2007, published 2009).
Marks after values point to notes of the source that are not given here.

Assays:
Format in all cases: cell-based, human
[1] = test system: Rac1; test: Rac1 activation pull-down assay in HUVECs; conditions: HUVEC, substance alone, test compound 50 μg/ml
Text: (§1) The useful methods of analysing the activation status of Rac1 and RhoA are based on the principle of the so-called pull down assay. In this format, the GTP-bound active state of the respective protein in a cell lysate is bound to an immobilized binding partner and detected with a monoclonal antibody (MAb) specifically directed against the protein in question. The amount of the GTP-bound active state can subsequently be quantified through suitable detection methods, including but not limited to Western blotting or luminescence detection.
The lysate is added to a suitably immobilized p21-binding domain (PBD) of p21-activated protein kinase (PAK) and the amount of activated Rac1 is quantified with a Rac1-specific MAb.
HUVECs are grown to confluence under standard conditions. Before induction of Rac1 activity HUVECs were starved for 4 h by using IMDM (Gibco) without growth factor and serum supplements. Rac1 activity is induced by adding 50 μg/ml of test compound into starvation medium for 1, 5 and 10 min. Active Rac1 was isolated using Rac1/Cdc42 Assay Reagent from Upstate according to manufactures instructions. Isolates were separated on a 15% polyacrylamid gel and blotted on Nitrocellulose-Membranes (Bio-Rad). Rac1 was detected by using Anti-Rac1 clone23A8, anti-mouse from Upstate (1:250).

[2] = test system: RhoA; test: Thrombin induced RhoA activation pull-down assay in HUVEC; conditions: substance alone, thrombin 5 U/ml
Text: as §1
The lysate is added to a suitably immobilized rhotekin-binding domain (RBD) and the signal measured with an appropriate detection method.
HUVEC are grown to confluence under standard conditions. Before induction of Rho activity HUVEC were starved for 4 h by using IMDM (Gibco) without growth factor and serum supplements. After the starvation period 5 U/ml Thrombin (Calbiochem) or 5 U thrombin plus 50 μg/ml of test compound are added to the starvation medium for 1, 5 and 10 min. Active RhoA was isolated using Rho Assay Reagent from Upstate according to manufactures instructions. Isolates were separated on a 15% polyacrylamid gel and blotted on Nitrocellulose-Membrane (Bio-Rad). RhoA was detected by using Anti-Rho (-A, -B, -C), clone55 from Upstate (1:500).

[3] = test system: FAK; test: Thrombin induced FAK phosphorylation at autophosphorylation site Tyr397 in HUVEC (immunoprecipitation / western blot); conditions: substance alone, compound 50 μg/ml, thrombin 1 U/ml
Protocol: For measuring the inhibition of thrombin meditated FAK phosphorylation in HUVECs, the cells are incubated under suitable conditions with a suitable amount of thrombin with and without the test compound for various periods of time up to 60 min and lysed afterwards lysates were subjected to SDS-PAGE and western blot analysis with site-specific antibodies directed against FAK phosphorylated tyrosine residues.
HUVEC were incubated with FX06 (50 μg/ml), Thrombin (1 U/ml, Sigma Aldrich) and Thrombin/test compound for indicated time points. After washing with ice cold PBS (GIBCO), cells were scrapped in Tris-lysis buffer (plus 1% Triton X (Bio-Rad), NP40 (Sigma Aldrich) and proteinase and phosphatase inhibitory cocktails (Sigma Aldrich)) from culture flasks and lysed for 20 min on ice. Lysates were heavily vortexed every 5 min. After lysis lysates were centrifuged (15.000 rpm/10 min/4° C.) and supernatants were added to 50 μl sepahrose beads (Sigma Aldrich) preincubated with 1 μg total FAK antibody (BD Transduction Laboratories). Beads were agitated on the wheel for 2 h at 4° C., followed by 3 times washing with ice cold PBS, the addition of 2× sample buffer and incubation at 95° C. for 5 min. The sample buffer was then removed from the beads and applied to western blotting.
10% polyacrylamide gels were run for separating precipitated proteins. Gels were blotted onto PVDF (Bio-Rad) membranes using the hoefer semi dry blotting system. Membranes were then washed with TBS/0.5% TWEEN (TBST), blocked with 1% BSA/TBST for 1 h at RT and then incubated with the p397 FAK antibody (0.2 μg/ml; BD Transduction Laboratories) in 1% BSA/TBST over night at 4° C. For detection, a HRP-labeled goat anti-mouse Ab (1:25 000; Bio-Rad) in TBST was used and bound Abs were visualized by chemiluminescence (ECL-system, Amersham Corp., Arlington Heights, Ill.) and recorded on film.

thrombin
Active Rac1, relative values compared to unstimulated control ([1]; 1 min): 0.5 +/− 0.2* | Active Rac1, relative values compared to unstimulated control ([1]; 5 min): 0.5 +/− 0.2* | Active Rac1, relative values compared to unstimulated control ([1]; 10 min): 1 +/− 0.1 | Active RhoA, relative values compared to unstimulated control ([2]; 1 min): 2.5 +/− 0.2* | Active RhoA, relative values compared to unstimulated control ([2]; 5 min): 2.5 +/− 0.2* | Active RhoA, relative values compared to unstimulated control ([2]; 10 min): 1 +/− 0.2 | FAK phosphorylation (p397), relative values compared to unstimulated control ([3]; 1 min): 4.5 +/− 0.2* | FAK phosphorylation (p397), relative values compared to unstimulated control ([3]; 5 min): 4.5 +/− 0.2* | FAK phosphorylation (p397), relative values compared to unstimulated control ([3]; 10 min): 3.8 +/− 0.1*
